A short description of assay [1]: Treatment of mycotoxin-infected corn kernels with aqueous ClO2 solution, then testing ground corn for mycotoxins. The note with it: corn kernels exposed to 400 ppm aqueous ClO2 solution for two hours; untreated corn 9 ppm. The source says:
Applicants conducted a study in order to determine the effects of ClO2 on toxins. Applicants obtained corn infected with mycotoxins and mycotoxin-producing microorganisms. Applicants exposed the corn kernels to an aqueous ClO2 solution with a concentration of 400 ppm for two hours. Applicants drained the aqueous ClO2 solution from the corn. Applicants ground the corn and tested for the presence of mycotoxins. Applicants also ground untreated corn from the batch and tested that corn for the presence of mycotoxins.

The nature of assay [2]: Treatment of mash from mycotoxin-infected ground corn with heated aqueous ClO2 solution, then testing mash for mycotoxins. The note with it: mash exposed to 200 ppm aqueous ClO2 solution heated to 185° F for two hours; untreated 12 ppm. On the procedure: Applicants conducted another study in order to determine the effects of ClO2 on toxins. Applicants obtained corn infected with mycotoxins and mycotoxin-producing microorganisms. Applicants ground the corn kernels and mixed them with water to form a mash, similar to what is used in various fermentation plants. Applicants heated an aqueous ClO2 solution with a concentration of 200 ppm to 185° F. Applicants then exposed the mash to the heated aqueous chlorine dioxide solution for two hours. Applicants drained the aqueous ClO2 solution from the mash. Applicants tested the mash for the presence of mycotoxins. Applicants also tested untreated mash from the same batch for the presence of mycotoxins.

The nature of assay [3]: Application of aqueous ClO2 solution to wheat during tempering or sweating. The note with it: 75 ppm aqueous ClO2 solution applied for 12 hours during tempering; approximately 12 ppm prior to application. On the procedure: During processing of certain grains, such as wheat, a sweating or tempering step is used. During this step, the grain is contacted with water. The grain can be contacted with water for various amounts of time. In some examples the contacting occurs over night, in other examples the contacting occurs from 12-24 hours. This can be used as an opportunity the introduce an aqueous ClO2 solution.
Applicants conducted a study where a 75 ppm aqueous ClO2 solution was applied to wheat during tempering or sweating. The aqueous ClO2 solution was applied to the wheat for 12 hours.

The structures appear in SMILES notation.

For `[O][Cl+][O-]` [ClO2, chlorine dioxide], the “concentration of Vomitoxin in treated corn” value in assay [1] stood at 2.3 ppm. In assay [2], the “concentration of Vomitoxin in treated corn (mash)” value is given as 0.5 ppm. Further, the “concentration of Vomitoxin in wheat after application” value in assay [3] is given as “approximately 1 ppm”.

Values taken from US9107967B2, “Apparatus and method for treating stored crops infected with toxins” (Pureline Treatment Systems, LLC, priority 2010, dated 2015).
